Publication PMC12080345 (Journal of medicinal chemistry, 2023)

Test: Acute toxicity assay in mice
Type: in vivo
Conditions: 200 mg/kg

With `COc1cc(Cn2ccc3cc(C(=O)NCC45C[C@H]6C[C@@H](C4)C[C@@H](C5)C6)ccc32)ccc1C(=O)NO` [4e, N-(((3r,5r,7r)-Adamantan-1-yl)methyl)-1-(4-(hydroxycarbamoyl)-3-methoxybenzyl)-1H-indole-5-carboxamide] the adverse effect was “no observed adverse effect”.
